Data taken from ChEMBL document CHEMBL6078719, “Discovery of acetohydroxyacid synthase inhibitors as anti-tuberculosis lead compounds from natural products” (Bioorg Med Chem, 2025).
≈ marks a conversion by molar mass, not a printed value. Calls of active or inactive are those of the source. The calls are words filed in the database; no cut-off is given here.

What was measured:
[1] = system: Mycolicibacterium smegmatis; test: Antibacterial activity against Mycobacterium smegmatis assessed as inhibition of bacterial growth incubated for 3 days by alamar blue staining based assay; assay type: functional; details: 72 h, time 3 day
[2] = Inhibition of Mycobacterium tuberculosis Acetohydroxy acid synthase using pyruvate as substrate at 40 uM incubated for 10 mins followed by substrate addition by colorimetric assay relative to control
[3] = Inhibition of Mycobacterium tuberculosis Acetohydroxy acid synthase using pyruvate as substrate incubated for 10 mins followed by substrate addition by colorimetric assay
[4] = system: Mycobacterium tuberculosis; test: Synergistic antibacterial activity against Mycobacterium tuberculosis assessed as inhibition of bacterial growth incubated for 3 days in presence of rifampicin by alamar blue staining based assay; assay type: functional, organism-based; details: time 3.0 day
[5] = Selectivity index, ratio of IC50 for cytotoxicity against human THP-1 cells to MIC90 for antimycobacterial activity against Mycobacterium tuberculosis; assay type: toxicity, cell-based; details: read-out: Selectivity Index
[6] = system: Mycobacterium tuberculosis; test: Antibacterial activity against Mycobacterium tuberculosis assessed as inhibition of bacterial growth incubated for 3 days by alamar blue staining based assay; assay type: functional; details: 72 h, time 3 day
[7] = Binding affinity to Mycobacterium tuberculosis Acetohydroxy acid synthase assessed as binding constant by isothermal titration calorimetry
[8] = system: Mycobacterium tuberculosis; test: Antimycobacterial activity against Mycobacterium tuberculosis assessed as inhibition of bacterial growth; assay type: functional
[9] = Cytotoxicity against human THP-1 cells incubated for 48 hrs by CCK8 assay; assay type: toxicity, cell-based
[10] = system: Mycobacterium tuberculosis; test: Binding affinity to Mycobacterium tuberculosis Acetohydroxy acid synthase assessed as change in enthalpy by isothermal titration calorimetry
[11] = system: Mycobacterium tuberculosis; test: Binding affinity to Mycobacterium tuberculosis Acetohydroxy acid synthase assessed as gibbs free energy change by isothermal titration calorimetry
[12] = system: Mycolicibacterium smegmatis; test: Synergistic antibacterial activity against Mycobacterium smegmatis assessed as inhibition of bacterial growth incubated for 3 days in presence of rifampicin by alamar blue staining based assay; assay type: functional, organism-based; details: time 3.0 day

SMILES	MIC [1]	inhibition [2]	IC50 [3]	Activity [4]	selectivity ratio [5]	MIC [6]	Kd [7]	MIC90 [8]	IC50 at 48 h [9]	deltaH [10]	deltaG [11]	Activity [12]
COc1ccc(-c2oc3c(CCC(C)(C)O)c(O)cc(O)c3c(=O)c2O)cc1	> 5000 µM	> 90%	32.4 µM									
CC1=C(O)C(=O)C=C2C1=CC=C1[C@@]2(C)CC[C@@]2(C)[C@@H]3C[C@](C)(C(=O)O)CC[C@]3(C)CC[C@]12C [CELASTROL]	62.5 µM (≈ 28.2 µg/mL)	> 90%	0.81 µM	inactive	< 1	80 µM (≈ 36 µg/mL)	1.9 µM	80 µM (≈ 36 µg/mL)	12.5 µM	-9.87 kcal/mol	-7.81 kcal/mol	inactive
CCCCCCCCCCCC1=C(O)C(=O)C=C(O)C1=O [EMBELIN]	> 5000 µM	> 90%	9.46 µM									
O=C(/C=C/c1ccc(O)c(O)c1/C=C/c1ccc(O)c(O)c1)O[C@H](Cc1ccc(O)c(O)c1)C(=O)O [SALVIANOLIC ACID A]	125 µM (≈ 61.8 µg/mL)	> 90%	0.84 µM	inactive		312 µM (≈ 155 µg/mL)						inactive
COC(=O)c1ccccc1S(=O)(=O)NC(=O)Nc1nc(C)cc(C)n1 [SULFOMETURON METHYL]	7.8 µM (≈ 2.84 µg/mL)	> 90%	3.68 µM									
